Data published in patent US8058395B2, “Chimeric protein comprising a green fluorescent ptotein fused to a transcription factor” (The United States of America as represented by the …, priority 1995, dated 2011).

Legend:
Assay type in all cases: cell-based
GFP-GR [1] = target: T1, GFP-GR (Rattus norvegicus, UniProt P06536, C656G/D98G); assay: Activation of endogenous multi-copy MMTV LTR-CAT reporter in 1471.1 cells expressing GFP-GR (ligand specificity); settings: 4 hrs, dex 1 nM and 10 nM, RU486 10 nM
T1 construct: expressed in transfected cells; host or cells: 1471.1 cells (murine C127 adenocarcinoma derivative); 3134 cells (C127 derivative) for gene targeting

GFP-GR [2] = target: T1, GFP-GR; assay: Cytoplasm-to-nuclear translocation of GFP-GR in living transfected murine adenocarcinoma cells (video/confocal microscopy)
GFP-GR [3] = target: T1, GFP-GR; assay: Intranuclear accumulation pattern (foci) of GFP-GR, confocal microscopy and 3D reconstruction; settings: ligand-treated cells

SMILES | activation of MMTV LTR-CAT reporter (GFP-GR [1]) | extent of GFP-GR cytoplasm-to-nuclear translocation (GFP-GR [2]; 10 nM ligand, 30 min at 37° C.) | intranuclear focal accumulation pattern of GFP-GR (GFP-GR [3]) | fluorescing cells in which translocation of GFP-GR occurs (GFP-GR [2])
C[C@]12CC[C@@H]3c4ccc(O)cc4CC[C@H]3[C@@H]1CC[C@@H]2O [17-β-estradiol] | fails to activate | did not cause intranuclear GFP-GR accumulation | not observed | –
C[C@@H]1C[C@H]2[C@@H]3CCC4=CC(=O)C=C[C@]4(C)[C@@]3(F)[C@@H](O)C[C@]2(C)[C@@]1(O)C(=O)CO [dexamethasone] | – | – | – | 100%
